Test results published in patent US12486273B2 (Hoffmann-La Roche Inc., priority 2019, dated 2025).

Experiments:
human TLR7 = human TLR7 (Homo sapiens (Human), UniProt Q9NYK1); assay: HEK293-Blue-hTLR-7 cells assay; format: cell-based; details: HEK293-Blue-hTLR7 cells, R848 stimulation, 20 hrs, SEAP reporter; read-out: HEK/hTLR7 IC50
From the text: HEK293-BLUE-hTLR-7 CELLS ASSAY:
(§1) A stable HEK293-Blue-hTLR-7 cell line was purchased from InvivoGen (Cat. #: hkb-htlr7, San Diego, California, USA). These cells were originally designed for studying the stimulation of human TLR7 by monitoring the activation of NF-κB. A SEAP (secreted embryonic alkaline phosphatase) reporter gene was placed under the control of the IFN-β minimal promoter fused to five NF-κB and AP-1-binding sites. The SEAP was induced by activating NF-κB and AP-1 via stimulating HEK-Blue hTLR7 cells with TLR7 ligands. Therefore the reporter expression was declined by TLR7 antagonist under the stimulation of a ligand, such as R848 (Resiquimod), for incubation of 20 hrs. The cell culture supernatant SEAP reporter activity was determined using QUANTI-Blue™ kit (Cat. #: rep-qb1, Invivogen, San Diego, Ca, USA) at a wavelength of 640 nm, a detection medium that turns purple or blue in the presence of alkaline phosphatase.
(§2) HEK293-Blue-hTLR7 cells were incubated at a density of 250,000˜450,000 cells/mL in a volume of 170 μL in a 96-well plate in Dulbecco's Modified Eagle's medium (DMEM) containing 4.5 g/L glucose, 50 U/mL penicillin, […], […], 2 mM L-glutamine, 10% (v/v) heat-inactivated fetal bovine serum with addition of 20 μL test compound in a serial dilution in the presence of final DMSO at 1% and 10 μL of 20 μM R848 in above DMEM, perform incubation under 37° C. in a CO2 incubator for 20 hrs. Then 20 μL of the supernatant from each well was incubated with 180 μL Quanti-blue substrate solution at 37° C. for 2 hrs and the absorbance was read at 620-655 nm using a spectrophotometer. The signaling pathway that TLR7 activation leads to downstream NF-κB activation has been widely accepted, and therefore similar reporter assay was modified for evaluating TLR7 antagonist.

human TLR8 = human TLR8 (Homo sapiens (Human), UniProt Q9NR97); assay: HEK293-Blue-hTLR-8 cells assay; format: cell-based; details: HEK293-Blue-hTLR8 cells, R848 stimulation, 20 hrs, SEAP reporter; read-out: HEK/hTLR8 IC50
From the text: HEK293-Blue-hTLR-8 Cells Assay:
as §1, with “HEK293-Blue-hTLR-8” for “HEK293-Blue-hTLR-7”, “hkb-htlr8,” for “hkb-htlr7,”, “TLR8” for “TLR7”, “hTLR8” for “hTLR7”, “R848,” for “R848 (Resiquimod),”, “rep-Qb1,” for “rep-qb1,”
HEK293-Blue-hTLR8 cells were incubated at a density of 250,000-450,000 cells/mL in a volume of 170 μL in a 96-well plate in Dulbecco's Modified Eagle's medium (DMEM) containing 4.5 g/L glucose, 50 U/mL penicillin, […], […], 2 mM L-glutamine, 10% (v/v) heat-inactivated fetal bovine serum with addition of 20 μL test compound in a serial dilution in the presence of final DMSO at 1% and 10 μL of 60 μM R848 in above DMEM, perform incubation under 37° C. in a CO2 incubator for 20 hrs. Then 20 μL of the supernatant from each well was incubated with 180 μL Quanti-blue substrate solution at 37° C. for […] and the absorbance was read at 620˜655 nm using a spectrophotometer. The signaling pathway that TLR8 activation leads to downstream NF-κB activation has been widely accepted, and therefore similar reporter assay was modified for evaluating TLR8 antagonist.

human TLR9 = human TLR9 (Homo sapiens (Human), UniProt Q9NR96); assay: HEK293-Blue-hTLR-9 cells assay; format: cell-based; details: HEK293-Blue-hTLR9 cells, ODN2006 stimulation, 20 hrs, SEAP reporter; read-out: HEK/hTLR9 IC50
From the text: HEK293-Blue-hTLR-9 Cells Assay:
A stable HEK293-Blue-hTLR-9 cell line was purchased from InvivoGen (Cat. #: hkb-htlr9, San Diego, California, USA). These cells were originally designed for studying the stimulation of human TLR9 by monitoring the activation of NF-κB. A SEAP (secreted embryonic alkaline phosphatase) reporter gene was placed under the control of the IFN-β minimal promoter fused to five NF-κB and AP-1-binding sites. The SEAP was induced by activating NF-κB and AP-via stimulating HEK-Blue hTLR9 cells with TLR9 ligands. Therefore the reporter expression was declined by TLR9 antagonist under the stimulation of a ligand, such as ODN2006 (Cat. #: tlrl-2006-1, Invivogen, San Diego, California, USA), for incubation of 20 hrs. The cell culture supernatant SEAP reporter activity was determined using QUANTI-Blue™ kit (Cat. #: rep-qb1, Invivogen, San Diego, California, USA) at a wavelength of 640 nm, a detection medium that turns purple or blue in the presence of alkaline phosphatase.
as §2, with “HEK293-Blue-hTLR9 cells” for “HEK293-Blue-hTLR7 cells”, “μM ODN2006” for “μM R848”, “2 h” for “2 hrs”, “that TLR9” for “that TLR7”, “evaluating TLR9” for “evaluating TLR7”

[1] = Human microsomal stability assay; format: in vitro ADME; details: human liver microsomes, 1 μM test compound, 37° C., pH 7.4
Experimental: Human Microsomal Stability Assay
Human liver microsomes (Cat. NO.: 452117, Corning, USA) were preincubated with test compound for 10 minutes at 37° C. in 100 mM potassium phosphate buffer, pH 7.4. The reactions were initiated by adding NADPH regenerating system. The final incubation mixtures contained 1 μM test compound, 0.5 mg/mL liver microsomal protein, 1 mM MgCl2, 1 mM NADP, 1 unit/mL isocitric dehydrogenase and 6 mM isocitric acid in 100 mM potassium phosphate buffer, pH 7.4. After incubation times of 0, 3, 6, 9, 15 and 30 minutes at 37° C., 300 μL of cold ACN (including internal standard) was added to 100 μL incubation mixture to terminate the reaction. Following precipitation and centrifugation, 100 μL supernatant will be taken out and added 300 μL water. The amount of compound remaining in the samples was determined by LC-MS/MS. Controls of no NADPH regenerating system at zero and 30 minutes were also prepared and analyzed. The results were categorized as: low (<7.0 mL/min/kg), medium (7.0-16.2 mL/min/kg) and high (16.2-23.2 mL/min/kg).

Sequence of human TLR8 (Q9NR97 27-1041): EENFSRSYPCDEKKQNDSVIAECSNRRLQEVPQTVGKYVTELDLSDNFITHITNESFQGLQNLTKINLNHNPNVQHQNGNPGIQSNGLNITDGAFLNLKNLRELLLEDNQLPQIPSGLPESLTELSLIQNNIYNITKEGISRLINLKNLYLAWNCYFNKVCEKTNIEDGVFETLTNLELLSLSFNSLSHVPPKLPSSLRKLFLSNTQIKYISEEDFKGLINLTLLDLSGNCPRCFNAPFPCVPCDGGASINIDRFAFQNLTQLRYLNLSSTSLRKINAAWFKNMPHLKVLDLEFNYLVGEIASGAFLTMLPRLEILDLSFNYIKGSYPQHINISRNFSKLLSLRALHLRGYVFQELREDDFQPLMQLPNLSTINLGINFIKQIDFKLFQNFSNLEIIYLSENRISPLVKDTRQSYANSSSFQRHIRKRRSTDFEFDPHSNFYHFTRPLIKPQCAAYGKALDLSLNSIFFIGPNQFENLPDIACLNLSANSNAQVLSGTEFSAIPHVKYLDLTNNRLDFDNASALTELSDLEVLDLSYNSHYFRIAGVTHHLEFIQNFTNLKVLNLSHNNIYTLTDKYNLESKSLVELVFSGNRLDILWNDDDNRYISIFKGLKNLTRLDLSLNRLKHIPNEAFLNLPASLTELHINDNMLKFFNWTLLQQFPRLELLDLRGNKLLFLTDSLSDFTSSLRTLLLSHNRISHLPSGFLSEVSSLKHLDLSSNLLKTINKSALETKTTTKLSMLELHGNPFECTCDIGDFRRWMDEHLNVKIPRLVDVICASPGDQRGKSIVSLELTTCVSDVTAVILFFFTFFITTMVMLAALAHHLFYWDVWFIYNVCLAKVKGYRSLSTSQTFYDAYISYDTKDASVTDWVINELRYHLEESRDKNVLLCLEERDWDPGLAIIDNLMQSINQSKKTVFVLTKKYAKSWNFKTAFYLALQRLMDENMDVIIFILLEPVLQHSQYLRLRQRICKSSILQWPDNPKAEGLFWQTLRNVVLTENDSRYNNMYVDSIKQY
Sequence of human TLR7 (Q9NYK1 27-1049): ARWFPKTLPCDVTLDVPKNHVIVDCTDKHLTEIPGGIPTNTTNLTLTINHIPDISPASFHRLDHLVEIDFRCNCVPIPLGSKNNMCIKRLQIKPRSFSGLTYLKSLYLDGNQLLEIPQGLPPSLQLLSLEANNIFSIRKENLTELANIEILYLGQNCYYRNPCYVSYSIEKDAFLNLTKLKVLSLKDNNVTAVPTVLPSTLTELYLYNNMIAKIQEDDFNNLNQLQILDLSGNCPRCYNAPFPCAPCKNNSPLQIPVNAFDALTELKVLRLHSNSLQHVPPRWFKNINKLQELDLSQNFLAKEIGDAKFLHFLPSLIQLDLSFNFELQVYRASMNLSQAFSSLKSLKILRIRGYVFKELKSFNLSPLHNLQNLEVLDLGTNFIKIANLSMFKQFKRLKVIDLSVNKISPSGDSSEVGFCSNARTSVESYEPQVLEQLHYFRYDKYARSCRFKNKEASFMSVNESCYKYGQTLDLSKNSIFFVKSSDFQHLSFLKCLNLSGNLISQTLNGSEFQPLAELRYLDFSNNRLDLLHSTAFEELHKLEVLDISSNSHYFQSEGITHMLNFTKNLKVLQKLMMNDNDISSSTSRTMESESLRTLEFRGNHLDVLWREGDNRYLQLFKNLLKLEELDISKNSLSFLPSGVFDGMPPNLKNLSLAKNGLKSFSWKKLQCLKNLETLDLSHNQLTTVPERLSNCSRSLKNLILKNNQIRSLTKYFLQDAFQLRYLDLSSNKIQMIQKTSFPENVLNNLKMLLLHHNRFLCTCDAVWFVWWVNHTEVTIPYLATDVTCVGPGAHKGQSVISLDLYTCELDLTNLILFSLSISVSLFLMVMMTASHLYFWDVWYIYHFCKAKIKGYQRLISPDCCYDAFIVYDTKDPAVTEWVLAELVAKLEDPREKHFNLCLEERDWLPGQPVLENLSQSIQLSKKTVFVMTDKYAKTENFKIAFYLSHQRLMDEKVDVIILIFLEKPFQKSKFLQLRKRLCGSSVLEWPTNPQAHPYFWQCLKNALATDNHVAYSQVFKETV
Sequence of human TLR9 (Q9NR96 26-1032): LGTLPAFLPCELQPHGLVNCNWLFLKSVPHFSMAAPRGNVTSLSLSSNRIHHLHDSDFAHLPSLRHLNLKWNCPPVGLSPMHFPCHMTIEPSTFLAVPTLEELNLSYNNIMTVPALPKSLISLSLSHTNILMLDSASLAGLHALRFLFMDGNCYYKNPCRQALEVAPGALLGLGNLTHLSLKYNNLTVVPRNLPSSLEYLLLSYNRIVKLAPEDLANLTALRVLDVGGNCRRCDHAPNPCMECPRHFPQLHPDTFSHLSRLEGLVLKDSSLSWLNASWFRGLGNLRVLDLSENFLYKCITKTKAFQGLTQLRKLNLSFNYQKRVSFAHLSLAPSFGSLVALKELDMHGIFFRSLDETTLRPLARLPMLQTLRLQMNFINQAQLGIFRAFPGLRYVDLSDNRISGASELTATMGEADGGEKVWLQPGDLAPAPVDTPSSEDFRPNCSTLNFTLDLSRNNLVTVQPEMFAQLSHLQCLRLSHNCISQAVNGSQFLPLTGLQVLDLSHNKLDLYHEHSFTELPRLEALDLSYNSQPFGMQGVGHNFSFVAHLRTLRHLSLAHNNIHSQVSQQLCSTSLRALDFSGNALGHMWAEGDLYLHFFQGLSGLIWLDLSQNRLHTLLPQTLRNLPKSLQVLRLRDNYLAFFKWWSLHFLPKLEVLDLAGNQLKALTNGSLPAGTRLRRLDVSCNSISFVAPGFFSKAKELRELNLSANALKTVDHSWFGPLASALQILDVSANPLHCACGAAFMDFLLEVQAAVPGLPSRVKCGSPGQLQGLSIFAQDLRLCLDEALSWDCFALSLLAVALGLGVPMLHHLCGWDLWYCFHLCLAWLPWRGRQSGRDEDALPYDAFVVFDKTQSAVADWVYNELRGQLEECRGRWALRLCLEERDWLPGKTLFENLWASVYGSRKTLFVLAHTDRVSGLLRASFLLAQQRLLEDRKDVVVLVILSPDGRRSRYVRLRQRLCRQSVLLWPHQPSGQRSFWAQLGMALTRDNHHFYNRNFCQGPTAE

IC50 (human TLR7) [nM]	IC50 (human TLR8) [nM]	IC50 (human TLR9) [nM]	CL (h) [1] [mL/min/kg]	SMILES
11.3	14.7	175	–	[2H]c1ccc2c(N3C[C@@H]4C[C@H](N5CC(C)(N)C5)CN4[C@H](C)C3)ccc(C#N)c2n1 [Example 17, 5-[(4R,7S,8aS)-7-(3-amino-3-methyl-azetidin-1-yl)-4-methyl-3,4,6,7,8,8a-hexahydro-1H-pyrrolo[1,2-a]pyrazin-2-yl]-2-deuterio-quinoline-8-carbonitrile]
19.9	8.9	210	8.6	[2H]c1ccc2c(N3C[C@@H]4C[C@H](N5CCC(C)(N)C5)CN4[C@H](C)C3)ccc(C#N)c2n1 (stereo partly drawn) [Example 19, 2-Deuterio-5-[(4R,7S,8aS)-7-(3-amino-3-methyl-pyrrolidin-1-yl)-4-methyl-3,4,6,7,8,8a-hexahydro-1H-pyrrolo[1,2-a]pyrazin-2-yl]quinoline-8-carbonitrile]
10.3	14.5	32.1	8.2	[2H]c1ccc2c(N3C[C@@H]4C[C@H](N5CC(n6ncc7c6CN[C@H](C)C7)C5)CN4[C@H](C)C3)ccc(C#N)c2n1 [Example 22A, 5-[(4R,7S,8aS)-4-methyl-7-[3-[(5R)-5-methyl-4,5,6,7-tetrahydropyrazolo[3,4-c]pyridin-1-yl]azetidin-1-yl]-3,4,6,7,8,8a-hexahydro-1H-pyrrolo[1,2-a]pyrazin-2-yl]-2-deuterio-quinoline-8-carbonitrile]
10.5	13.8	407	8.1	[2H]c1ccc2c(N3C[C@@H]4C[C@H](n5ncc6c5CNCC6)CN4[C@H](C)C3)ccc(C#N)c2n1 [Example 23A, 2-Deuterio-5-[(4R,7S,8aS)-4-methyl-7-(4,5,6,7-tetrahydropyrazolo[3,4-c]pyridin-1-yl)-3,4,6,7,8,8a-hexahydro-1H-pyrrolo[1,2-a]pyrazin-2-yl]quinoline-8-carbonitrile]
12	3.4	154	6.2	[2H]c1ccc2c(N3C[C@@H]4C[C@H](n5cc6c(n5)CNCC6)CN4[C@H](C)C3)ccc(C#N)c2n1 [Example 23B, 2-deuterio-5-[(4R,7S,8aS)-4-methyl-7-(4,5,6,7-tetrahydropyrazolo[3,4-c]pyridin-2-yl)-3,4,6,7,8,8a-hexahydro-1H-pyrrolo[1,2-a]pyrazin-2-yl]quinoline-8-carbonitrile]

The remaining lines, values behind:

SMILES	IC50 (human TLR7) [nM]	IC50 (human TLR8) [nM]	IC50 (human TLR9) [nM]	CL (h) [1] [mL/min/kg]
C[C@@H]1NCCc2cnc(N[C@@H]3C[C@H]4CN(c5ccc(C#N)c6ncccc56)C[C@@H](C)N4C3)cc21 [Example 9A, 5-[(4R,7R,8aS)-4-methyl-7-[[(5S)-5-methyl-5,6,7,8-tetrahydro-2,6-naphthyridin-3-yl]amino]-3,4,6,7,8,8a-hexahydro-1H-pyrrolo[1,2-a]pyrazin-2-yl]quinoline-8-carbonitrile]	18.2	8.6	65.7	8.4
C[C@@H]1CN(c2ccc(C#N)c3ncccc23)C[C@@H]2C[C@@H](Nc3cc4c(cn3)CCN[C@@H]4C)CN21 [Example 9B, 5-[(4R,7R,8aS)-4-methyl-7-[[(5R)-5-methyl-5,6,7,8-tetrahydro-2,6-naphthyridin-3-yl]amino]-3,4,6,7,8,8a-hexahydro-1H-pyrrolo[1,2-a]pyrazin-2-yl]quinoline-8-carbonitrile]	13.3	4.7	42.1	9.6
[2H]c1ccc2c(N3C[C@@H]4C[C@H](N5CC6CCC(C5)N6)CN4[C@H](C)C3)ccc(C#N)c2n1 [Example 16, 2-Deuterio-5-[(4R,7S,8aS)-7-(3,8-diazabicyclo[3.2.1]octan-3-yl)-4-methyl-3,4,6,7,8,8a-hexahydro-1H-pyrrolo[1,2-a]pyrazin-2-yl]quinoline-8-carbonitrile]	8.1	4.7	40.9	7.2
[2H]c1ccc2c(N3C[C@@H]4C[C@H](N5CCC(C)(N)CC5)CN4[C@H](C)C3)ccc(C#N)c2n1 [Example 18, 5-[(4R,7S,8aS)-7-(4-amino-4-methyl-1-piperidyl)-4-methyl-3,4,6,7,8,8a-hexahydro-1H-pyrrolo[1,2-a]pyrazin-2-yl]-2-deuterio-quinoline-8-carbonitrile]	16.4	12.3	46.7	9.8
[2H]c1ccc2c(N3C[C@@H]4C[C@H](N5CCC6(CCCNC6)CC5)CN4[C@H](C)C3)ccc(C#N)c2n1 [Example 21, 2-Deuterio-5-[(4R,7S,8aS)-7-(2,9-diazaspiro[5.5]undecan-9-yl)-4-methyl-3,4,6,7,8,8a-hexahydro-1H-pyrrolo[1,2-a]pyrazin-2-yl]quinoline-8-carbonitrile]	30.4	10.3	45.1	–
